The source of these data is patent publication EP4623911A1, “PI4KB INHIBITORS FOR THE TREATMENT OF FATTY LIVER DISEASE” (ETH Zurich, priority 2024, dated 2025).

The assay has as its system mouse model of hepatic steatosis. The assay can be described thus: HFD-induced hepatic steatosis (NAFLD) mouse model treated with UCB9608. The format is in vivo, mice. As to the method: Male mice were used for NAFLD induction via feeding on HFD. ROSA26-LSL-spCas9 mice were injected with AAV-U6-Cu/7 gRNAs-TBG-Cre and AAV-U6-Fbxw8 gRNAs-TBG-Cre virus pools at a dose of 3×10^11 genome copies/mouse and fed in HFD for 12 weeks and livers were harvested after 6 hours fasting. To study PI4KB in NAFLD progression, male ROSA26-LSL-spCas9 mice were fed in HFD for 12 weeks to induce fatty liver before induction of hepatocyte specific depletion of PI4KB via intravenous administration of AAV8. After another 8 weeks, mice were dissected to harvest liver after 6 hours fasting. Likewise, male C57BL/6N wild-type mice and liver specific Atgl knockout mice (AtglLKO) were challenged with HFD for 12 weeks to induce fatty liver prior to administration of UCB9608 mixed in HFD (5 mg/kg) for another 8 weeks. Then the mice were dissected to harvest tissues and sample blood after 6 hours fasting Atgl floxed mice (The Jackson Lab strain) were crossed with Albumin-Cre (The Jackson Lab strain) and Adip-CreERT2 strains to obtain Alb-Atgfl^fl/fl and AdipcreERT2-Atgl^fl/fl mice (Sitnick,M.T. et al, Diabetes 62, (2013)), which deplete ATGL protein in the liver and the adipose depots (induced after tamoxifen gavage), respectively. […]
Adipose depots, liver pieces, differentiated iBAs, HepG2, HEK293T and HEK293-AAV cell types were homogenized in RIPA buffer (50 mM Tris-HCl pH 7.4, 150 mM NaCl, 2 mM EDTA, 1.0% Triton X100, 0.5% sodium deoxycholate) with protease inhibitors (Complete, Roche) and phosphatase inhibitors (Halt phosphatase inhibitor cocktail, ThermoFisher). […] The concentration of WCE was determined by DC Protein Assay (Bio-Rad). […]
Plasma collected from mice under different conditions was used to determine levels of lipolysis and liver injury. FFA levels were measured via NEFA assay kit (Wako NEFA kit). TG levels were determined via TG assay kit (Roche Trig/GB reagent). […] The absorbance was monitored using Synergy Gen5 Platereader.
Weight of liver pieces (50-100 mg) was recorded before homogenization by 1 mL isopropanol per 50 mg tissue. […]

Consider `COc1ccc(NC(=O)N2CCN(c3nc(N)nc4c3cnn4C)[C@@H](C)C2)c(C)c1` [UCB9608], for which the “hepatic steatosis (hepatic TG levels)” value (HFD 12 weeks, then UCB9608 in HFD (5 mg/kg) 8 weeks, requires ATGL in the liver) is “substantially attenuated”. In addition, the “ATGL protein levels in the iBAT, gWAT and liver” value (UCB9608- vs DMSO-treated HFD mice) is given as “significantly greater”. Besides, under “wild-type mice, HFD 12 weeks, then UCB9608 in HFD (5 mg/kg) 8 weeks, vs DMSO”, the “plasma FFA levels” value was “significantly increased”.
